In patent US20140357633A1, “COMPOUNDS FOR INHIBITING THE INTERACTION OF BCL2 WITH BINDING PARTNERS” (NOVARTIS AG, priority 2011, published 2014) one finds IC50 data, which are given here for 18 molecules.

Values joined by “and” are separate entries in the source; they are usually repeats but may differ in a detail not shown here. Equal entries are not always repeated.

Test [1] concerns the target BCL-2 (binding to BAK peptide) (Homo sapiens, UniProt P10415). Nature of the test: SPR (Biacore) solution inhibition assay, BCL-2 binding to immobilized BAK peptide. As to conditions: biotinylated BAK peptide surface, 56 nM BCL-2, 25° C.; range = high and low IC50 values from multiple experiments; read-out: BCL2_SPR IC50 BAK. The source says:
(§1) The present method includes utility of a Surface plasmon resonance (SPR)-based biosensor (Biacore™′ GE Healthcare, Uppsala, Sweden) to characterize BCL-2 inhibitors.
(§2) Biacore™ utilizes the phenomenon of surface plasmon resonance (SPR) to detect and measure binding interactions. In a typical Biacore experiment, one of the interacting molecules (ligand) is immobilized on a flexible dextran matrix while the interacting partner (analyte) is allowed to flow across that surface. A binding interaction results in an increase in mass on the sensor surface and a corresponding direct change in the refractive index of the medium in the vicinity of the sensor surface. Changes in refractive index or signal are recorded in resonance units (R.U.) Signal changes due to association and dissociation of complexes are monitored in a non-invasive manner, continuously and in real-time, the results of which are reported in the form of a sensorgram.
(§3) The SPR assay is configured to examine solution inhibition of BCL-2 binding to peptide derivatized sensor surfaces to generate IC50 values as a measure of inhibitor potency.
(§4) Biacore™ A100 (GE Healthcare, Uppsala, Sweden) was used to conduct all experiments reported herein. Sensor surface preparation and all interaction analyses experiments were performed at 25° C. Reagents were purchased from GE Healthcare. Running buffer containing 10 mM Hepes, pH7.4, 150 mM sodium chloride, 1.25 mM Dithiothreitol, 3% Dimethyl sulfoxide and 0.05% polysorbate 20 were utilized throughout all analyses.
(§5) Biotinylated BAK, BAD and NOXA peptides were diluted to 10 nM in running buffer and captured onto a sensor surface pre-derivatized with streptavidin (sensor chip SA) to peptide surface densities in the range 50-100 R.U. Peptide captured surfaces were blocked with 500 μM PEO2-Biotin.
(§6) Interaction analyses were performed by first equilibrating each sample within a 6 point three fold compound dilution series in the range 16 μM to […] with 56 nM BCL-2 for one hour during instrument start-up procedures. Protein compound mixtures were then injected over each peptide surface in parallel for 60 seconds at a flow-rate of 30 μL/min. 56 nM BCL-2 control samples were also prepared and run at regular intervals during the assay. Surface regeneration was performed at the end of each analysis cycle by two 30 second injections of 10 mM Glycine, pH 2.5, 1M Sodium Chloride, 0.05% polysorbate 20. Samples and control compound samples were run in duplicate and controls are also run at regular intervals during the assay to monitor surface and assay performance.
(§7) Data analyses are carried out using Biacore™ A100 evaluation software v1.1 to validate assay quality. Binding level report points were used relative to BCL-2 control samples to calculate % inhibition values for each compound protein mixture. […] The range of data shown in table 1 represents the high and low IC50 values obtained from multiple experiments.
A general note: In SPR one partner is held on a chip, and binding of the other changes the refractive index at the surface.

Test [2] addresses BCL-2 (binding to BAD peptide) (Homo sapiens, UniProt P10415). Briefly: SPR (Biacore) solution inhibition assay, BCL-2 binding to immobilized BAD peptide. As to conditions: biotinylated BAD peptide surface, 56 nM BCL-2, 25° C.; range = high and low IC50 values from multiple experiments; read-out: BCL2_SPR IC50 BAD.
Text: as §1, §2, §3, §4, §5, §6, §7

Chain of BCL-2 (binding to BAK peptide) (P10415 whole entry): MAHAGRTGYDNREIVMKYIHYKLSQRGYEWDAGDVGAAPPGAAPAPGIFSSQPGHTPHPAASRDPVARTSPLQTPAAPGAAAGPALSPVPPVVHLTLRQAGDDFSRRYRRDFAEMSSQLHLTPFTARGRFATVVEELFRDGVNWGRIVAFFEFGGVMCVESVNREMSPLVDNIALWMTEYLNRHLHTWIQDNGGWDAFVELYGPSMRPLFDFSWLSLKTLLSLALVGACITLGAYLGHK
Chain of BCL-2 (binding to BAD peptide) (P10415 whole entry): as above

One may read the IC50 as the concentration that inhibits the measured activity by half. For the molecule `CCCCN(CCCC)C(=O)c1cc(C)n(-c2ccc(NC(=O)Cc3ccc(F)cc3Cl)cc2C(=O)N2Cc3ccccc3C[C@H]2CO)n1` [Example 158], the IC50 is 0.436 to 0.5 µM in test [1] and 0.537 to 0.546 µM in test [2].
In the case of `CCCCN(CCCC)C(=O)c1cc(C)n(-c2ccc(NC(=O)c3cccnc3Nc3cccc(C(F)(F)F)c3)cc2C(=O)N2Cc3ccccc3C[C@H]2CO)n1` [Example 150], the IC50 in test [1] was 0.597 to 0.598 µM; in test [2], 0.431 to 0.444 µM.
In the case of `CCCCN(CCCC)C(=O)c1cc(C)n(-c2ccc(NC(=O)c3ccc4c(c3)N=S=N4)cc2C(=O)N2Cc3ccccc3C[C@H]2CO)n1` [Example 84], the results for the IC50 in test [1] and in test [2] were 0.862 to 0.957 µM and 1.02 to 1.04 µM, respectively.
In the same order, the values of `CCCCN(CCCC)C(=O)c1cc(C)n(-c2ccc(NC(=O)C(C)(C)CC(=O)O)cc2C(=O)N2Cc3ccccc3C[C@H]2CO)n1` [Example 39] are 0.106 to 0.124 µM and 0.143 to 0.166 µM.
The like results for `CCCCN(CCCC)C(=O)c1cc(C)n(-c2ccc(NC(=O)C(CCNC(C)=O)c3ccccc3)cc2C(=O)C2Cc3ccccc3C[C@H]2CO)n1` (stereo partly drawn) [Example 74] were, in that order, 0.0808 to 0.0814 µM and 0.0951 to 0.096 µM.
In the same order, the values of `CCCCN(CCCC)C(=O)c1cc(C)n(-c2ccc(NC(=O)c3ccccc3COc3ccccc3)cc2C(=O)N2Cc3ccccc3C[C@H]2CO)n1` [Example 92] are 1.12 to 1.18 µM and 1.27 to 1.35 µM.
For `CCCCN(CCCC)C(=O)c1cc(C)n(-c2ccc(NC(=O)c3cc(C(C)C)nn3C)cc2C(=O)N2Cc3ccccc3C[C@H]2CO)n1` [Example 47], the IC50 in test [1] lay within 0.586 to 0.6 µM; in test [2], 0.522 to 0.594 µM.
In the same order, the values of `CCCCN(CCCC)C(=O)c1cc(C)n(-c2ccc(NC(=O)Cc3cccc(Br)c3)cc2C(=O)N2Cc3ccccc3C[C@H]2CO)n1` [Example 138] are 0.0438 to 0.053 µM and 0.0561 to 0.0608 µM.
In the same order, the values of `CCCCN(CCCC)C(=O)c1cc(C)n(-c2ccc(NC(=O)CC(=O)O)cc2C(=O)N2Cc3ccccc3C[C@H]2CO)n1` [Example 19] are 0.241 to 0.251 µM and 0.363 to 0.365 µM.
The like results for `CCCCN(CCCC)C(=O)c1cc(C)n(-c2ccc(NC(=O)c3cc(-c4cccc(O)c4)[nH]n3)cc2C(=O)N2Cc3ccccc3C[C@H]2CO)n1` [Example 134] were, in that order, 0.739 to 0.881 µM and 0.918 to 0.958 µM.
Turning to `CCCCN(CCCC)C(=O)c1cc(C)n(-c2ccc(NC(=O)Cc3cccc(F)c3)cc2C(=O)C2Cc3ccccc3C[C@H]2CO)n1` (stereo partly drawn) [Example 75], the results for the IC50 in test [1] and in test [2] were 0.0532 to 0.059 µM and 0.0666 to 0.07 µM, respectively.
The like results for `CCCCN(CCCC)C(=O)c1cc(C)n(-c2ccc(NC(=O)c3cc(C(C)C)nn3CC)cc2C(=O)N2Cc3ccccc3C[C@H]2CO)n1` [Example 85] were, in that order, 0.741 to 0.784 µM and 0.923 to 0.932 µM.
The like results for `CCCCN(CCCC)C(=O)c1cc(C)n(-c2ccc(NC(=O)C(CC(=O)N3CCCC3)c3ccccc3)cc2C(=O)N2Cc3ccccc3C[C@H]2CO)n1` (stereo partly drawn) [Example 27] were, in that order, 0.0585 to 0.0709 µM and 0.0619 to 0.0668 µM.
In the same order, the values of `CCCCN(CCCC)C(=O)c1cc(C)n(-c2ccc(NC(=O)c3cccc(Cl)c3O)cc2C(=O)N2Cc3ccccc3C[C@H]2CO)n1` [Example 83] are 0.0653 to 0.0697 µM and 0.0816 to 0.0891 µM.
In the case of `CCCCN(CCCC)C(=O)c1cc(C)n(-c2ccc(NC(=O)c3cc(F)ccc3C(F)(F)F)cc2C(=O)N2Cc3ccccc3C[C@H]2CO)n1` [Example 145], the IC50 was 1.25 to 1.27 µM and 0.964 to 1.22 µM in test [1]; 1.67 µM and 1.17 to 1.22 µM in test [2].
For the molecule `CCCCN(CCCC)C(=O)c1cc(C)n(-c2ccc(NC(=O)c3cnn4cccnc34)cc2C(=O)N2Cc3ccccc3C[C@H]2CO)n1` [Example 107], the figures for the IC50 in test [1] and in test [2] were 0.497 to 0.52 µM and 0.693 to 0.748 µM, respectively.
`CCCCN(CCCC)C(=O)c1cc(C)n(-c2ccc(NC(=O)c3cc(S(N)(=O)=O)ccc3OC)cc2C(=O)N2Cc3ccccc3C[C@H]2CO)n1` [Example 71]: the IC50 lay within 0.072 to 0.0747 µM in test [1] and 0.0935 to 0.0999 µM in test [2].
As for `CCCCN(CCCC)C(=O)c1cc(C)n(-c2ccc(NC(=O)C(CC(=O)OC)c3ccccc3)cc2C(=O)N2Cc3ccccc3C[C@H]2CO)n1` (stereo partly drawn) [Example 6], the IC50 in test [1] is 0.105 to 0.107 µM; in test [2] it was 0.12 to 0.121 µM.
